Reference: patent US12201693B2, “Amanitin conjugates” (Heidelberg Pharma Research GmbH, priority 2016, dated 2025)
*1 amine or outer side, *2 acyl side, *3 side chain or, on linkers, in order; H or OH if unused. Where a SMILES comes first, the peptide text is derived from it. Bridges are numbered along the chain shown (N, C = ends). [ ]: non-standard residue; d: D form. The star is where a group is joined. ξ: configuration not given here. X2 = CC(C)C(NC(=O)CCN1C(=O)C=CC1=O)C(=O)N[C@@H](C)C(=O)Nc1ccc(CN*)cc1; ξTrp(2-yl) = O=C(C(Cc1c([*:3])[nH]c2ccccc12)N[*:1])[*:2]; Ile(4R-OH,5-OH) = C[C@H]([C@H](N)C(=O)O)[C@@H](O)CO; X3 = CC([C@H](N[*:1])C(=O)[*:2])[C@@H](O)CO; X1 = O=C([C@@H]1CC(O)CN1[*:1])[*:2]; ξD = NC(CC(=O)O)C(=O)O; ξC = NC(CS)C(=O)O

What was measured:
[1] = reactivity with cysteine in PBS buffer, RP-HPLC C18; type: physicochemical; settings: 1 mg/mL compound, 10 mg/mL cysteine in PBS, pH 7.4 at 37° C. after 24 h, 48 h and 6 d
Method: 1 mg/ml α-amanitin 10 mg/mL cysteine in PBS, pH 7.4 at 37° C. after 24 h, 48 h and 6 d RP-HPLC C18.
1 mg/mL β-amanitin 10 mg/mL cysteine in PBS, pH 7.4 at 37° C. after 24 h, 48 h and 6 d RP-HPLC […].
1 mg/mL amanin 10 mg/mL cysteine in PBS, pH 7.4 at 37° C. after 24 h, 48 h and 6 d RP-HPLC […].
1 mg/mL HDP 30.2105, 10 mg/mL cysteine in PBS, pH 7.4 at 37° C. after 24 h, 48 h and 6 d RP-HPLC C18; * impurity.

SKBR-3 cells = experiment: cytotoxicity assay on SKBR-3 cells after plasma/PBS stressing of ADCs; type: cell-based; settings: conjugated to T-D265C, SKBR-3 cells 96 h
Method: Test items were incubated in human plasma at 37° C. for 0 an 4 days. Cytotoxicity assay were performed on SKBR-3 cells for 96 h.
Test items were incubated in mouse plasma at 37° C. for 0 an 4 days. Cytotoxicity assay were performed on SKBR-3 cells for 96 h.
Test items were incubated in PBS at 37° C. for 0 an 4 days. Cytotoxicity assay were performed on SKBR-3 cells for 96 h. All ADCs show adequate stability to non-enzymatic environment.

[2] = Western-Blot analysis of T-D265C conjugates after incubation in human plasma, mouse plasma and PBS; type: in vitro ADME; settings: conjugated to T-D265C antibody; 37° C. in human plasma, mouse plasma and PBS for 0, 4 and 10 days
Method: Western-Blot analysis of amatoxin derivatives HOP 30.1699, HDP 30.2060 and HDP 30.2115 conjugated to T-D265C antibody after incubation at 37° C. in human plasma, mouse plasma an phosphate buffered saline (PBS) for 0, 4 and 10 days. Detection was done with a polyclonal anti-amanitin antibody from rabbit and an anti-rabbit antibody conjugated to horseradish peroxidase.

RNA-polymerase II = RNA-polymerase II (Homo sapiens, UniProt P24928); settings: complex between amanitin and RNA-polymerase II; cited from earlier work

In the case of `CC[C@H](C)[C@@H]1NC(=O)CNC(=O)C2Cc3c([nH]c4ccccc34)SCC(NC(=O)CNC1=O)C(=O)NC(CC(=O)O)C(=O)N1CC(O)C[C@H]1C(=O)N[C@@H](C(C)[C@@H](O)CO)C(=O)N2` (some centres unmarked) [HDP 30.2105] (cyclo(GIG[ξC][ξD][X1][X3][ξTrp(2-yl)]); thioether 4-8), the reactivity with cysteine [1] is reported as “complete absence of reactivity”.

For `CC[C@H](C)[C@@H]1NC(=O)CNC(=O)C2Cc3c([nH]c4ccccc34)SCC(NC(=O)CNC1=O)C(=O)N[C@@H](CC(=O)NCc1ccc(NC(=O)[C@H](C)NC(=O)C(NC(=O)CCN3C(=O)C=CC3=O)C(C)C)cc1)C(=O)N1CC(O)C[C@H]1C(=O)N[C@@H]([C@@H](C)[C@@H](O)CO)C(=O)N2` (stereo partly drawn) [HDP 30.2115] (cyclo(D(X2)[X1][Ile(4R-OH,5-OH)][ξTrp(2-yl)]GIG[ξC]); thioether 4-8), the “cytotoxicity after plasma stressing” value (SKBR-3 cells; human plasma at 37° C. for 0 and 4 days) was “still picomolar activity”, the “cytotoxicity after plasma stressing” value (SKBR-3 cells; mouse plasma at 37° C. for 0 and 4 days) was “remains almost unchanged” and the “cross-links and loss of the amatoxin moiety (stability)” value [2] was “high stability and significantly reduced cross-links”.

For amanin, the reactivity with cysteine [1] was “reduced reactivity”.

In the case of amanitin, the Kd (RNA-polymerase II) is listed as 3 nM.

With α-Amanitin the reactivity with cysteine [1] was “strong reactivity”.

With β-Amanitin the reactivity with cysteine [1] was “strong reactivity”.
